Laboratory results reported in the NIST ThermoML archive (doi:10.1016/j.jct.2011.05.018).

Test: xn = mol fraction of the nth substance listed
Settings: 101 kPa, Liquid; for viscosity: Capillary tube (Ostwald / Ubbelohde) method; for speed of sound: Pulse-echo method; for mass density: Pycnometric method

Cc1ccccc1O [2-methylphenol] + COc1ccc(C=O)cc1
x2 = 0
Settings | mass density [kg/m3] | speed of sound [m/s] | viscosity [mPa·s]
303.15 K | 1036.2 | 1485.3 | 7.479
308.15 K | 1031 | 1466.8 | 5.963
313.15 K | 1026 | 1452.1 | 4.238
318.15 K | 1021.1 | 1437.1 | 2.215

Cc1cccc(O)c1 [3-methylphenol] + COc1ccc(C=O)cc1
x2 = 0
Settings | mass density [kg/m3] | speed of sound [m/s] | viscosity [mPa·s]
303.15 K | 1025.8 | 1464.2 | 8.929
308.15 K | 1021.5 | 1449.3 | 7.412
313.15 K | 1017 | 1436.3 | 6.116
318.15 K | 1013.5 | 1424.2 | 5.019

COc1ccc(C=O)cc1 [4-methoxybenzaldehyde] + Cc1ccc(O)cc1
Settings | mass density [kg/m3] | speed of sound [m/s] | viscosity [mPa·s]
303.15 K, x1 = 0.0882 | 1032.1 | 1492 | 9.142
303.15 K, x1 = 0.1788 | 1038.5 | 1511.2 | 8.618
303.15 K, x1 = 0.2717 | 1044.6 | 1532.1 | 8.086
303.15 K, x1 = 0.3673 | 1053 | 1553.5 | 7.524
303.15 K, x1 = 0.4654 | 1061.2 | 1575.9 | 7.064
303.15 K, x1 = 0.5663 | 1068.4 | 1599.1 | 6.543
303.15 K, x1 = 0.6701 | 1076.7 | 1622.7 | 5.753
303.15 K, x1 = 0.7769 | 1089.3 | 1646.6 | 5.04
303.15 K, x1 = 0.8868 | 1105.6 | 1671.3 | 4.265
303.15 K, x1 = 1 | 1125.2 | 1694.3 | 3.251
308.15 K, x1 = 0.0882 | 1027.7 | 1477 | 7.824
308.15 K, x1 = 0.1788 | 1033 | 1496.4 | 7.419
308.15 K, x1 = 0.2717 | 1038.6 | 1516.2 | 7.002
308.15 K, x1 = 0.3673 | 1045.9 | 1536.6 | 6.568
308.15 K, x1 = 0.4654 | 1053 | 1558 | 6.218
308.15 K, x1 = 0.5663 | 1060.5 | 1580.1 | 5.826
308.15 K, x1 = 0.6701 | 1066.8 | 1602.5 | 5.158
308.15 K, x1 = 0.7769 | 1077.5 | 1625.2 | 4.604
308.15 K, x1 = 0.8868 | 1093 | 1648.6 | 3.965
308.15 K, x1 = 1 | 1111.6 | 1670.7 | 3.131
313.15 K, x1 = 0.0882 | 1024.2 | 1462.2 | 6.529
313.15 K, x1 = 0.1788 | 1029.7 | 1479.1 | 6.242
313.15 K, x1 = 0.2717 | 1035.9 | 1496.4 | 5.913
313.15 K, x1 = 0.3673 | 1044 | 1514.2 | 5.582
313.15 K, x1 = 0.4654 | 1050.3 | 1533 | 5.339
313.15 K, x1 = 0.5663 | 1057.6 | 1552.4 | 5.07
313.15 K, x1 = 0.6701 | 1065.6 | 1572 | 4.541
313.15 K, x1 = 0.7769 | 1076.5 | 1591.7 | 4.099
313.15 K, x1 = 0.8868 | 1091.7 | 1612 | 3.609
313.15 K, x1 = 1 | 1109.5 | 1631.3 | 2.961
318.15 K, x1 = 0.0882 | 1020 | 1445.1 | 5.316
318.15 K, x1 = 0.1788 | 1027.2 | 1456.5 | 5.115
318.15 K, x1 = 0.2717 | 1033.9 | 1467.9 | 4.87
318.15 K, x1 = 0.3673 | 1042.1 | 1479.6 | 4.616
318.15 K, x1 = 0.4654 | 1048.9 | 1492.3 | 4.431
318.15 K, x1 = 0.5663 | 1055.4 | 1505.4 | 4.259
318.15 K, x1 = 0.6701 | 1063 | 1518.5 | 3.861
318.15 K, x1 = 0.7769 | 1073.7 | 1531.2 | 3.523
318.15 K, x1 = 0.8868 | 1088.9 | 1544.7 | 3.163
318.15 K, x1 = 1 | 1104.7 | 1557 | 2.682
